Measurements as given in ChEMBL document CHEMBL5143703, “Discovery of novel chloropyramine-cinnamic acid hybrids as potential FAK inhibitors for intervention of metastatic triple-negative breast cancer” (Bioorg Med Chem, 2022).
The source made the active and inactive calls. No cut-off for these calls is given here.

What was measured:
MDA-MB-231 [1] = assay: Antiproliferative activity against human MDA-MB-231 cells assessed as inhibition of cell proliferation incubated for 72 hrs by MTT assay; format: functional, cell-based; settings: MDA-MB-231, 72 h
MDA-MB-157 = assay: Antiproliferative activity against human MDA-MB-157 cells assessed as inhibition of cell proliferation incubated for 72 hrs by MTT assay; format: functional, cell-based; settings: MDA-MB-157, 72 h
MDA-MB-453 = assay: Antiproliferative activity against human MDA-MB-453 cells assessed as inhibition of cell proliferation incubated for 72 hrs by MTT assay; format: functional, cell-based; settings: MDA-MB-453, 72 h
MDA-MB-231 [2] = assay: Antiproliferative activity against human MDA-MB-231 cells assessed as inhibition of cell proliferation at 10 uM incubated for 72 hrs by MTT assay relative to control; format: functional
[3] = Cytotoxicity against human MCF-10A cells assessed as inhibition of cell proliferation incubated for 72 hrs by MTT assay; format: toxicity, cell-based
MDA-MB-231 [4] = assay: Induction of apoptosis in human MDA-MB-231 cells assessed as viable cells at 5 uM incubated for 72 hrs by Annexin V-FITC and PI staining based flow cytometry analysis (reference value: 92.16 %); format: functional; settings: read-out: Activity
MDA-MB-231 [5] = assay: Inhibition of cell invasion in human MDA-MB-231 cells assessed as reduction in invasive cells incubated for 24 hrs by crystal violet staining based transwell assay; format: functional; settings: dose 5-20 µM, DDE = dose-dependent effect
MDA-MB-231 [6] = assay: Induction of apoptosis in human MDA-MB-231 cells assessed as dead cells at 20 uM incubated for 72 hrs by Annexin V-FITC and PI staining based flow cytometry analysis (reference value: 1.16 %); format: functional
MDA-MB-231 [7] = assay: Induction of apoptosis in human MDA-MB-231 cells assessed as late apoptotic cells at 20 uM incubated for 72 hrs by Annexin V-FITC and PI staining based flow cytometry analysis (reference value: 4.98 %); format: functional
MDA-MB-231 [8] = assay: Inhibition of focal adhesion formation in human MDA-MB-231 cells assessed as reduction in focal adhesion at 20 uM incubated for 72 hrs by vinculin antibody based immunofluorescence microscopic analysis; format: functional, cell-based
MDA-MB-231 [9] = assay: Induction of apoptosis in human MDA-MB-231 cells assessed as early apoptotic cells at 10 uM incubated for 72 hrs by Annexin V-FITC and PI staining based flow cytometry analysis (reference value: 1.70 %); format: functional
MDA-MB-231 [10] = assay: Inhibition of cell migration in human MDA-MB-231 cells incubated for 24 hrs by scratch wound healing assay; format: functional, cell-based; settings: dose 5-20 µM, DDE = dose-dependent effect
MDA-MB-231 [11] = assay: Inhibition of stress fibers formation in human MDA-MB-231 cells assessed as reduction in stress fibers at 20 uM incubated for 72 hrs by FITC-Phalloidin staining based immunofluorescence microscopic analysis; format: functional, cell-based
MDA-MB-231 [12] = assay: Induction of apoptosis in human MDA-MB-231 cells assessed as late apoptotic cells at 10 uM incubated for 72 hrs by Annexin V-FITC and PI staining based flow cytometry analysis (reference value: 4.98 %); format: functional
[13] = target: Focal adhesion kinase 1 (Homo sapiens) (UniProt Q05397); assay: Inhibition of FAK autophosphorylation at […] in human MDA-MB-231 cells incubated for 72 hrs by Western blot analysis; format: cell-based; settings: dose 5-20 µM, DDE = dose-dependent effect
MDA-MB-231 [14] = assay: Induction of apoptosis in human MDA-MB-231 cells assessed as late apoptotic cells at 5 uM incubated for 72 hrs by Annexin V-FITC and PI staining based flow cytometry analysis (reference value: 4.98 %); format: functional
MDA-MB-231 [15] = assay: Induction of apoptosis in human MDA-MB-231 cells assessed as dead cells at 10 uM incubated for 72 hrs by Annexin V-FITC and PI staining based flow cytometry analysis (reference value: 1.16 %); format: functional
[16] = Potency index, ratio of test compound IC50 to chloropyramine IC50 for cytotoxicity against human MCF-10A cells assessed as inhibition of cell proliferation incubated for 72 hrs by MTT assay; format: toxicity, cell-based; settings: read-out: Ratio IC50
MDA-MB-231 [17] = assay: Induction of apoptosis in human MDA-MB-231 cells assessed as viable cells at 10 uM incubated for 72 hrs by Annexin V-FITC and PI staining based flow cytometry analysis (reference value: 92.16 %); format: functional; settings: read-out: Activity
MDA-MB-231 [18] = assay: Potency index, ratio of chloropyramine IC50 to test compound IC50 for antiproliferative activity against human MDA-MB-231 cells assessed as inhibition of cell proliferation incubated for 72 hrs by MTT assay; format: functional
MDA-MB-231 [19] = assay: Induction of apoptosis in human MDA-MB-231 cells assessed as viable cells at 20 uM incubated for 72 hrs by Annexin V-FITC and PI staining based flow cytometry analysis (reference value: 92.16 %); format: functional; settings: read-out: Activity
MDA-MB-231 [20] = assay: Induction of apoptosis in human MDA-MB-231 cells assessed as early apoptotic cells at 5 uM incubated for 72 hrs by Annexin V-FITC and PI staining based flow cytometry analysis (reference value: 1.70 %); format: functional
MDA-MB-231 [21] = assay: Induction of apoptosis in human MDA-MB-231 cells assessed as early apoptotic cells at 20 uM incubated for 72 hrs by Annexin V-FITC and PI staining based flow cytometry analysis (reference value: 1.70 %); format: functional
MDA-MB-231 [22] = assay: Induction of apoptosis in human MDA-MB-231 cells assessed as dead cells at 5 uM incubated for 72 hrs by Annexin V-FITC and PI staining based flow cytometry analysis (reference value: 1.16 %); format: functional

Focal adhesion kinase 1 (Homo sapiens), sequence (Q05397 2-1052 limits assumed): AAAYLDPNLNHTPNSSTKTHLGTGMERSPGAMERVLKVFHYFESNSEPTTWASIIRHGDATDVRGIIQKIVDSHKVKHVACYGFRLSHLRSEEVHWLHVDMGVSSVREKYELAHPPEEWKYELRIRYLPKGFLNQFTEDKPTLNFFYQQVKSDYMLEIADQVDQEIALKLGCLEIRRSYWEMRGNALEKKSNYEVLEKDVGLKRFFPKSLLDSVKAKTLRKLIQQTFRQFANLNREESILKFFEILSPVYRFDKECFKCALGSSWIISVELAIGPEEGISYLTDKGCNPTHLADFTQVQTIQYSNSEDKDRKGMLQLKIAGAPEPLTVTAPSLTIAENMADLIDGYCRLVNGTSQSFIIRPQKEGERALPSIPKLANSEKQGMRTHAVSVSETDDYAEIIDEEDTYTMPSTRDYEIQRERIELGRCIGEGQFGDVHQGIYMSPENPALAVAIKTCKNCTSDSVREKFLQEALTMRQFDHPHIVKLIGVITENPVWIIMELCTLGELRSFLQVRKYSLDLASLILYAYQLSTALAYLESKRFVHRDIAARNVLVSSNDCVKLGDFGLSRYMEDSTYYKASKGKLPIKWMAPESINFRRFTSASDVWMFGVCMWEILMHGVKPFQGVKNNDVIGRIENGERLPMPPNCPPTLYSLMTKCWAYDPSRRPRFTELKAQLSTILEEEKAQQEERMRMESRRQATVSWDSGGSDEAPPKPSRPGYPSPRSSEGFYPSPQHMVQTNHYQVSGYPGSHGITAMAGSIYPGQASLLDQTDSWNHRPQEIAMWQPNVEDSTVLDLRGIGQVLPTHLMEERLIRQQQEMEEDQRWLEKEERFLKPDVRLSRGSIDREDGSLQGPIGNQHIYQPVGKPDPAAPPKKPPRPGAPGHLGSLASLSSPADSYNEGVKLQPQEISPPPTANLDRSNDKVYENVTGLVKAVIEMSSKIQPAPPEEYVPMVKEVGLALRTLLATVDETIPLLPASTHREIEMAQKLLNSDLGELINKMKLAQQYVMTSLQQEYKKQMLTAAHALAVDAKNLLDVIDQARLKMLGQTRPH

| SMILES | IC50 (MDA-MB-231 [1]) | IC50 (MDA-MB-157) | IC50 (MDA-MB-453) | inhibition at 10 µM (MDA-MB-231 [2]) | IC50 at 72 h [3] | further results |
| --- | --- | --- | --- | --- | --- | --- |
| Cc1nc(C)c(/C=C/C(=O)N(CCN(C)C)c2ccccn2)nc1C | 14 µM | 9.68 µM | 21.2 µM | > 50% | > 60 µM |  |
| COc1cc(/C=C/C(=O)N(CCN(C)C)c2ccccn2)cc(OC)c1OC | 9.31 µM | 21.4 µM | 15.5 µM | > 50% | 45.5 µM |  |
| COc1cc(/C=C/C(=O)N(CCN(C)C)c2ccccn2)ccc1O | 13.5 µM | 14.2 µM | 15.9 µM | > 50% | > 60 µM |  |
| CN(C)CCN(Cc1ccc(Cl)cc1)c1ccccn1 [CHLOROPYRAMINE] | 49.7 µM | 43.1 µM | > 60 µM |  | > 60 µM |  |
| CN(C)CCN(C(=O)/C=C/c1c[nH]c2ccccc12)c1ccccn1 | 8.37 µM | 12.1 µM | 9.07 µM | > 50% | 40.6 µM | viability at 5 µM (MDA-MB-231 [4]): 83%; inhibition (MDA-MB-231 [5]): Dde; Activity (MDA-MB-231 [6]): 5.83%; Activity (MDA-MB-231 [7]): 39.58%; inhibition (MDA-MB-231 [8]): Active; Activity (MDA-MB-231 [9]): 2%; inhibition (MDA-MB-231 [10]): Dde; inhibition (MDA-MB-231 [11]): Active; Activity (MDA-MB-231 [12]): 30.24%; inhibition [13]: Dde; Activity (MDA-MB-231 [14]): 10.05%; Activity (MDA-MB-231 [15]): 3.98%; selectivity ratio at 72 h [16]: 5; viability at 10 µM (MDA-MB-231 [17]): 63.8%; Ratio IC50 (MDA-MB-231 [18]): 6; viability at 20 µM (MDA-MB-231 [19]): 52.6%; Activity (MDA-MB-231 [20]): 3.05%; Activity (MDA-MB-231 [21]): 2.01%; Activity (MDA-MB-231 [22]): 3.88% |
